The values below come from PubChem BioAssay (NCI).

Assay in all cases: growth of human tumour cells (NCI), 48 h
In experiment [1] the test system is HOP-18 NSCLC.
In experiment [2] the test system is SNB-78 CNS.
In experiment [3] the test system is LXFL 529 NSCLC.
The test system of experiment [4] is KM20L2 colon.
Experiment [5] relates to XF 498 CNS.
In experiment [6] the test system is RXF-631 renal.
Experiment [7] deals with DMS 114 small cell lung.
Experiment [8] deals with MDA-N.
Experiment [9] concerns DMS 273 small cell lung.

Structures are written as SMILES. Values joined by “and” are separate entries in the source; they are usually repeats but may differ in a detail not shown here. Identical values can stand only once.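 These data come from cells grown in 96-well plates and exposed to compound for 48 hours at five concentrations. Abbreviation: GI50, concentration required for 50% inhibition of growth. TGI is the concentration that stops growth completely.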 Where only a bound is given, the exact number is not on record here.

In the case of `CCCCCCCCCCCCCCCC(=O)N[C@H]1CCc2cc(OC)c(OC)c(OC)c2-c2ccc(SC)c(=O)cc21`, the TGI was 36.9 µM in experiment [1]; 80 µM and 25.7 µM in [2]; 9.54 µM and 4.92 µM in [3]; 0.344 µM and 3.4 µM in experiment [4]; 8.5 µM and 8.63 µM in experiment [5]. In addition, the GI50 is 0.669 µM in experiment [2], 1.55 µM in [3], 1.59 µM in [4] and 2.18 µM in experiment [5].
Turning to `O=C1CC2Sc3ccccc3N=C2N1c1ccc(Cl)cc1Cl` (stereo not given), the TGI in experiment [6], in [1], in experiment [2], in [3], in [4] and in experiment [7] was more than 100 µM in each case. Moreover, the TGI in experiment [5] is more than 100 µM.
Turning to `CN1CC(C(=O)NC2(C)OC3(O)C4CCCN4C(=O)C(Cc4ccccc4)N3C2=O)C=C2c3cccc4[nH]cc(c34)CC21` (stereo not given), in experiment [8], the TGI turned out to be 55.1 µM.
`C=C(C)[C@]12CC(C)C34OC(/C=C\C=C\CCCCCCCCC)(O[C@@H]1[C@@H]3[C@@H]1O[C@]1(CO)[C@@H](O)[C@]1(O)C(=O)C(C)=C[C@@H]41)O2` (stereo not given in full): in [8], the GI50 was 0.000167 µM and the TGI amounted to 19 µM.
Regarding `COc1cc2cc3c4c(cc(OC)c(OC)c4c2cc1OC)CCN3C(=O)OCCBr`, the TGI in [2], in [4], in experiment [9] and in experiment [5] was more than 100 µM in each case.
`CCN1CC2(C)CC[C@@H](OC)C34[C@@H]2[C@H](OC(C)=O)C2(OCO[C@@]25C[C@H](OC)C2C[C@]3(O)[C@@H]5[C@H]2O)[C@H]14`: the TGI in [2], in [3], in [4] and in experiment [7] was more than 100 µM each time.
Turning to `Clc1ccccc1C1=NN(c2ccccc2)C2c3cc(Br)ccc3OCC12` (stereo not given), the TGI in [1], in experiment [2], in experiment [3], in experiment [4], in experiment [9] and in experiment [7] was more than 100 µM each time. The TGI in [5] was more than 100 µM.
On to `Cc1nc(C(N)=S)sc1C(=O)CC(=O)C(=O)Nc1cccc(Cl)c1C`, for which the TGI in experiment [8] was more than 100 µM.
As to `Cc1cccc(N2C(=O)/C(=C/c3ccc(N(CCC#N)CCC#N)cc3C)N=C2c2cc([N+](=O)[O-])ccc2Cl)c1`, the TGI in [6], in experiment [1], in [3], in experiment [9] and in [7] was more than 100 µM throughout.
Take `O=C1/C(=C/c2ccccc2)CN(C(=O)Oc2ccc([N+](=O)[O-])cc2)C/C1=C\c1ccccc1`: the TGI was 28.5 µM in experiment [2]; 5.41 µM and 2.9 µM in experiment [3]; 8.2 µM in experiment [4]; 2.94 µM and 3.17 µM in experiment [9]; 4.63 µM and 3.84 µM in experiment [7]. Besides, the GI50 is 1.41 µM in experiment [3], 3.9 µM in experiment [4], 1.22 µM in experiment [9] and 1.68 µM in [7].
For the molecule `C/C(=N/Nc1ccc([N+](=O)[O-])cc1[N+](=O)[O-])C(CC(C(=O)Nc1ccccc1C)/C(C)=N\Nc1ccc([N+](=O)[O-])cc1[N+](=O)[O-])C(=O)Nc1ccccc1C` (stereo not given), the TGI in experiment [1] was 28.9 µM; in experiment [2], 52.2 µM; in [3], 27.9 µM; in experiment [4], more than 88.3 µM; in [9], 41.7 µM; in experiment [7], 17.7 µM. The molecule further gave a TGI in experiment [5] of 33.8 µM.
With `CCOC(=N)CC(=O)NC(C)c1ccccc1` (stereo not given), the TGI in experiment [6], in experiment [1], in experiment [2], in experiment [3], in [4] and in [9] was more than 100 µM each time. The TGI in experiment [5] is more than 100 µM.
`O=[N+]([O-])O.[NH-]C1CCCCC1[NH-].[NH-]C1CCCCC1[NH-].[NH-]C1CCCCC1[NH-].[OH-].[OH-].[OH-].[Pt+4].[Pt+4].[Pt+4]` (stereo not given): in experiment [8], the GI50 is 0.205 µM and the TGI was determined as 6.74 µM.
For the molecule `CC(C)(C)NCCC(O)c1cc(C(F)(F)F)nc2c(C(F)(F)F)cccc12` (stereo not given), in experiment [8], the TGI was found to be 24 µM.
Same read-out and setting: as for `N#CC1(C#N)C2C=CC(C3CCC=C32)C1(C#N)C#N` (stereo not given), the figure is more than 10 µM.
Turning to `C/C(=N\NC(=S)N1CCC(C2CCN(C(=S)N/N=C(\C)c3ccccn3)CC2)CC1)c1ccccn1`, the TGI in [6], in experiment [1], in experiment [2], in [3], in experiment [4] and in experiment [9] was more than 100 µM throughout. In [5], this molecule registered a TGI of 86.5 µM.
For the molecule `CCOP(=O)(OCC)C(F)(F)CC1CCCCC1`, the TGI in experiment [8] was more than 10 µM.
Regarding `CCCOc1c2cc(COC3OC(CO)C(O)C(O)C3O)cc1Cc1cc(COC3OC(CO)C(O)C(O)C3O)cc(c1OCCC)Cc1cc(COC3OC(CO)C(O)C(O)C3O)cc(c1OCCC)Cc1cc(COC3OC(CO)C(O)C(O)C3O)cc(c1OCCC)C2` (stereo not given), in [8], the GI50 was > 100 µM and 18.4 µM; the TGI is > 100 µM and 34.8 µM.
`Cc1cc(N)c2ccccc2[n+]1CCCCCCCCCC[n+]1c(C)cc(N)c2ccccc21`: in [8], the GI50 is 2.13 µM; the TGI was 6.08 µM and 6.72 µM.
As to `O=C(Cc1nc2ccc([N+](=O)[O-])cc2[nH]c1=O)C(=O)Nc1cc(Cl)c(Cl)cc1Cl`, the TGI in experiment [8] was more than 100 µM.
The same measure, in the same setting: the result for `COCCCN1C(=O)C2c3[nH]c4ccccc4c3C3CCC(C(C)(C)C)CC3C2C1=O` (stereo not given) reads more than 100 µM; that for `CNC(=O)OCC1=C(COC(=O)NC)CN(c2ccccc2)C1`, more than 100 µM.
As to `CCCCCCCCCCCCCCCC(=O)OCC1OC(n2ccc(N)nc2=O)C(O)C1O` (stereo not given), the TGI in experiment [8], in experiment [1], in experiment [2], in experiment [3], in [4] and in experiment [9] was more than 100 µM each time. For the same molecule, the TGI in [5] was more than 100 µM.
On to `CN1c2ccccc2C(=O)Nc2cnc(Cl)nc21`, for which the TGI in experiment [8] is more than 100 µM.
As for `COc1cc(CC(=O)c2ccc3c(c2)OCO3)cc(OC)c1OC`, the TGI in experiment [6] is more than 100 µM; in experiment [1], more than 100 µM; in experiment [2] it was more than 100 µM; in experiment [3] it was more than 100 µM; in experiment [4], more than 100 µM; in experiment [7], 92.7 µM.
As for `O=C(OCc1nc2ccc(Br)cc2c(=O)n1-c1ccccc1)c1ccccc1O`, the TGI in [2], in experiment [3], in [4] and in experiment [5] was more than 100 µM throughout.
`Cc1cccc(CC(C)(C)C)c1NC(=O)C(=O)C(C(=O)c1ccc2ccccc2c1)C1OC(=O)c2ccccc21` (stereo not given): the TGI in experiment [2] was more than 100 µM; in [7], 56.7 µM.
Consider `Cc1[nH]c(=O)nc(N/N=C/c2ccc(O)cc2)c1C(=O)Nc1ccc(Cl)cc1`, for which the TGI in [6], in experiment [1], in [2], in [3], in experiment [4] and in [9] was more than 100 µM in each case. The molecule further showed a TGI in [7] of more than 100 µM.
`COc1cc2c(cc1OC)[C@H]1C(=O)c3cc4c(cc3[C@H]1N(C)C2=O)OCO4` had a TGI in [8] of more than 100 µM.
As to `Cc1c(-c2coc(-c3ccc(Cl)cc3)n2)c(=O)n(-c2ccccc2)n1C`, the TGI in [2], in [3], in experiment [4], in experiment [9] and in experiment [5] was more than 100 µM throughout.
For the molecule `COc1cc2c(c(OC)c1OC)-c1ccc(SC)c(=O)cc1[C@@H](NC(=O)c1ccc(C#N)cc1)CC2`, the TGI in [2] is 83.7 µM; in experiment [3], 18.3 µM; in experiment [4] it was less than 0.01 µM; in experiment [9], more than 46.3 µM; in experiment [7] it was less than 0.01 µM.
Take `O=C(CC(C(=O)O)N1CCOCC1)c1ccccc1` (stereo not given): the TGI in experiment [8] is 36.8 µM.
As to `Fc1nc(F)nc(-c2c3ccccc3c3n2CCS3)n1`, the TGI in experiment [2], in experiment [3], in experiment [4], in experiment [9], in experiment [7] and in [5] was more than 100 µM each time.
In experiment [8], `Cc1cnc2[nH]c(-c3ccccc3)cc(=O)c2c1` came in with a TGI of more than 100 µM.
The same measure, in the same setting: as for `Cc1nn(C(=O)c2ccccc2O)c2c1C(c1ccc(O)cc1)SC(N)=N2` (stereo not given), the figure is more than 10 µM.
For the molecule `CCOC(=O)NNC(=O)NC12CC3CC(CC(C3)C1)C2`, the TGI in experiment [1], in experiment [2], in experiment [3], in experiment [4], in experiment [9] and in [7] was more than 100 µM in each case. The molecule also gave a TGI in [5] of more than 100 µM.
As to `O=C1c2ccccc2C(=O)c2c1ccc1c3ccccc3n(Cc3ccccc3)c21`, the TGI was 0.0908 µM in experiment [1], more than 100 µM in [3], more than 100 µM in [7] and more than 100 µM in experiment [5].
